Experimental data: ChEMBL document CHEMBL6109182, “Regio- and Stereoselective Synthesis of Nitro-fatty Acids as NRF2 Pathway Activators Working under Ambient or Hypoxic Conditions” (J Med Chem, 2025)
Active and inactive are the calls of the source. The calls are words filed in the database; no cut-off is given here.

Tests used:
[1] = biological target: T1, Nuclear factor erythroid 2-related factor 2 (Mus musculus) (UniProt Q60795); experiment: Activation of NRF2 in C57BL/6 mouse bone marrow cells exposed to 21% oxygen at 2 uM incubated for 1 hr; assay type: cell-based; details: Bone marrow cell
T1 sequence (whole entry): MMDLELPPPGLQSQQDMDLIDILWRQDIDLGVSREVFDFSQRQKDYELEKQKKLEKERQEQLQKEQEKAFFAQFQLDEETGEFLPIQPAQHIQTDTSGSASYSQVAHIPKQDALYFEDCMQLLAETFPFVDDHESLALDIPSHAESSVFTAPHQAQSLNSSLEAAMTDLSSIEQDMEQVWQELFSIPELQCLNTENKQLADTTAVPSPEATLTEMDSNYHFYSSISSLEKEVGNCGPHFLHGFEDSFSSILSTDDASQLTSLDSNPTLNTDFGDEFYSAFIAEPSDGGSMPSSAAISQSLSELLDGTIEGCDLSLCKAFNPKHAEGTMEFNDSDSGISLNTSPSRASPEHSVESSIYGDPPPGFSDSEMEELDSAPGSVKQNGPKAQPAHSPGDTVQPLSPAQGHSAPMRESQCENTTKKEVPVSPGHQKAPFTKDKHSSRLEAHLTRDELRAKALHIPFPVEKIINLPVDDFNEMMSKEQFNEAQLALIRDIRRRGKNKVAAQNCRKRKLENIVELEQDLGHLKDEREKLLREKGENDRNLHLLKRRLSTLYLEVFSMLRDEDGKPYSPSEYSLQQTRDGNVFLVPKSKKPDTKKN

[2] = biological target: T1, Nuclear factor erythroid 2-related factor 2 (Mus musculus); experiment: Activation of NRF2 in C57BL/6 mouse bone marrow cells assessed as increase in Gclm gene expression exposed to 4% oxygen at 2 uM incubated for 4 hrs by qRT-PCR analysis; assay type: cell-based; details: Bone marrow cell
[3] = biological target: T1, Nuclear factor erythroid 2-related factor 2 (Mus musculus); experiment: Induction of NRF2 stabilization in C57BL/6 mouse bone marrow cells exposed to 4% oxygen at 2 uM incubated for 1 hr; assay type: cell-based; details: Bone marrow cell
[4] = biological target: T1, Nuclear factor erythroid 2-related factor 2 (Mus musculus); experiment: Activation of NRF2 in C57BL/6 mouse bone marrow cells assessed as increase in Hmox1 gene expression exposed to 1% oxygen at 2 uM incubated for 4 hrs by qRT-PCR analysis; assay type: cell-based; details: Bone marrow cell
[5] = biological target: T1, Nuclear factor erythroid 2-related factor 2 (Mus musculus); experiment: Activation of NRF2 in C57BL/6 mouse bone marrow cells exposed to 4% oxygen at 2 uM incubated for 1 hr; assay type: cell-based; details: Bone marrow cell
[6] = biological target: T1, Nuclear factor erythroid 2-related factor 2 (Mus musculus); experiment: Activation of NRF2 in C57BL/6 mouse bone marrow cells assessed as fold increase in HO-1 level exposed to hypoxic condition at 2 uM incubated for 4 hrs by Western blot analysis; assay type: cell-based; details: Bone marrow cell, filed as activator
[7] = biological target: T1, Nuclear factor erythroid 2-related factor 2 (Mus musculus); experiment: Induction of NRF2 stabilization in C57BL/6 mouse bone marrow cells exposed to 1% oxygen at 2 uM incubated for 1 hr; assay type: cell-based; details: Bone marrow cell
[8] = biological target: T1, Nuclear factor erythroid 2-related factor 2 (Mus musculus); experiment: Activation of NRF2 in C57BL/6 mouse bone marrow cells assessed as increase in Hmox1 gene expression exposed to 4% oxygen at 2 uM incubated for 4 hrs by qRT-PCR analysis; assay type: cell-based; details: Bone marrow cell
[9] = biological target: T1, Nuclear factor erythroid 2-related factor 2 (Mus musculus); experiment: Induction of NRF2 stabilization in C57BL/6 mouse bone marrow cells exposed to 21% oxygen at 2 uM incubated for 1 hr; assay type: cell-based; details: Bone marrow cell
[10] = biological target: T1, Nuclear factor erythroid 2-related factor 2 (Mus musculus); experiment: Activation of NRF2 in C57BL/6 mouse bone marrow cells assessed as increase in GCLM level exposed to 21% oxygen at 2 uM incubated for 7 hrs by Western blot analysis; assay type: cell-based; details: Bone marrow cell
Bone marrow cell = experiment: Upregulation of Nfe2l2 gene expression in C57BL/6 mouse bone marrow cells exposed to 4% oxygen at 2 uM incubated for 4 hrs by qRT-PCR analysis; assay type: functional, cell-based
[11] = biological target: T1, Nuclear factor erythroid 2-related factor 2 (Mus musculus); experiment: Activation of NRF2 in C57BL/6 mouse bone marrow cells assessed as increase in Gclm gene expression exposed to 1% oxygen at 2 uM incubated for 4 hrs by qRT-PCR analysis; assay type: cell-based; details: Bone marrow cell
[12] = biological target: T1, Nuclear factor erythroid 2-related factor 2 (Mus musculus); experiment: Activation of NRF2 in C57BL/6 mouse bone marrow cells exposed to 1% oxygen at 2 uM incubated for 1 hr; assay type: cell-based; details: Bone marrow cell
[13] = biological target: T1, Nuclear factor erythroid 2-related factor 2 (Mus musculus); experiment: Activation of NRF2 in C57BL/6 mouse bone marrow cells assessed as nuclear translocation of NRF2 exposed to 1% oxygen at 2 uM incubated for 1 hr by Western blot analysis; assay type: cell-based; details: Bone marrow cell
[14] = biological target: T1, Nuclear factor erythroid 2-related factor 2 (Mus musculus); experiment: Activation of NRF2 in C57BL/6 mouse bone marrow cells assessed as increase in GCLM level exposed to 1% oxygen at 2 uM incubated for 7 hrs by Western blot analysis; assay type: cell-based; details: Bone marrow cell
[15] = biological target: T1, Nuclear factor erythroid 2-related factor 2 (Mus musculus); experiment: Activation of NRF2 in C57BL/6 mouse bone marrow cells assessed as increase in HO-1 level exposed to 21% oxygen at 2 uM incubated for 4 hrs by Western blot analysis; assay type: cell-based; details: Bone marrow cell, filed as activator
[16] = biological target: T1, Nuclear factor erythroid 2-related factor 2 (Mus musculus); experiment: Activation of NRF2 in C57BL/6 mouse bone marrow cells assessed as nuclear translocation of NRF2 exposed to 1% oxygen at 2 uM incubated for 1 hr by IHC analysis; assay type: cell-based; details: Bone marrow cell, filed as activator
[17] = biological target: T1, Nuclear factor erythroid 2-related factor 2 (Mus musculus); experiment: Activation of NRF2 in C57BL/6 mouse bone marrow cells assessed as fold increase in HO-1 level exposed to 1% oxygen at 2 uM incubated for 4 hrs by Western blot analysis relative to control; assay type: cell-based; details: Bone marrow cell, filed as activator

| Compound | Activity [1] | Activity [3] | Activity ([5]; filed as activator) | Activity [7] | Activity [9] | Activity ([10]; filed as activator) | Activity ([12]; filed as activator) | Activity [15] | Activity ([13]; filed as activator) | Activity ([14]; filed as activator) | Activity ([2]; filed as activator) | Activity ([4]; filed as activator) | Activity ([8]; filed as activator) | Activity (Bone marrow cell) | Activity ([11]; filed as activator) | other results |
| --- | --- | --- | --- | --- | --- | --- | --- | --- | --- | --- | --- | --- | --- | --- | --- | --- |
| CCCCCCC=C/C=C(\CCCCCCCC(=O)O)[N+](=O)[O-] | inactive | Active | Active | Active | Active |  | Active |  |  |  | Active; Compound Exhibited Upregulation That Was Dependent On Oxygen Levels Or Specific Target Genes | Active; Compound Exhibited Upregulation That Was Dependent On Oxygen Levels Or Specific Target Genes | Active; Compound Exhibited Upregulation That Was Dependent On Oxygen Levels Or Specific Target Genes | inactive | Active; Compound Exhibited Upregulation That Was Dependent On Oxygen Levels Or Specific Target Genes |  |
| CCCCCCCCC(CCCCCCCCC(=O)O)[N+](=O)[O-] (configuration not stated) | inactive | Active |  | Active | Active |  |  |  |  |  |  |  |  | inactive |  | Activity [2]: inactive; Activity [13]: inactive; Activity [4]: inactive; Activity [5]: inactive; Activity [14]: inactive; Activity [8]: inactive; Activity [10]: inactive; Activity [12]: inactive; Activity [11]: inactive |
| CCCCCCCC/C(=C\CCCCCCCC(=O)O)[N+](=O)[O-] | inactive | Active |  | Active | Active | Active | Active | Active | Active | Active | Active | Active | Active | inactive | Active | Activity [16]: Active |

Continued, in another order:

| Activity [1] | Activity [3] | Activity ([5]; filed as activator) | Activity [7] | Activity [9] | Activity ([10]; filed as activator) | Activity ([12]; filed as activator) | Activity [15] | Activity ([13]; filed as activator) | Activity ([14]; filed as activator) | Compound | Activity ([2]; filed as activator) | Activity ([4]; filed as activator) | Activity ([8]; filed as activator) | Activity (Bone marrow cell) | Activity ([11]; filed as activator) | other results |
| --- | --- | --- | --- | --- | --- | --- | --- | --- | --- | --- | --- | --- | --- | --- | --- | --- |
| inactive | Active | Active | Active | Active | Active |  |  |  |  | CCCCC/C=C\C/C(=C\CCCCCCCC(=O)O)[N+](=O)[O-] | Active; Compound Exhibited Upregulation That Was Dependent On Oxygen Levels Or Specific Target Genes | Active; Compound Exhibited Upregulation That Was Dependent On Oxygen Levels Or Specific Target Genes | Active; Compound Exhibited Upregulation That Was Dependent On Oxygen Levels Or Specific Target Genes | inactive | Active; Compound Exhibited Upregulation That Was Dependent On Oxygen Levels Or Specific Target Genes | Activity [6]: Active |
| inactive | Active |  | Active | Active | Active | Active | Active | Active | Active | CCCCCCCC/C=C(\CCCCCCCC(=O)O)[N+](=O)[O-] | Active | Active | Active | Active | Active | fold change (FC) [17]: 1.8 |
